Consider one molecule from patent US7553871B2, “Fatty acid antimicrobial” (GEA WestfaliaSurge, Inc., priority 1996, dated 2009).

The structures appear in SMILES notation.

Holding throughout (assay type): cell-based
Test [1] concerns Staphylococcus aureus. The experiment in a line: Excised dairy cow teat dip test (Example 2). The settings on record: Staphylococcus aureus on excised cow teats; dipped, drained ten minutes; log mean CFU/ml vs negative control. How it is done:
(§1) Another set of in vitro tests were run on Staphylococcus aureus, Escherichia coli, and Streptococcus uberis. A culture of the microorganism was first prepared according to the following procedure. Six to ten milliliters of trypticase soy broth was inoculated with the organism under consideration from a frozen or refrigerated stock. After incubation for five to seven hours at 37° C., the culture was transferred to a flask containing 200 milliliters of trypticase soy broth. The culture in the flask was then incubated on a gyratory shaker at approximately 1500 rpm overnight at 37° C. The next day, the culture in the flask is washed once in PBS or 0.1% protease peptone, and stored at approximately 4° C. until required.
(§2) The tests were run using dairy cow teats which had been obtained from a slaughter house. The teats were cut off at their connection to the udder, cleaned, and all hair was removed by using an open flame. The teats selected for the testing were screened for lesions, cuts, scars or other abnormalities. The teats were stored until needed in plastic bags in ice at a temperature below freezing. […]
(§3) Countable dilutions were plated on appropriate media, and incubated from 24 to 48 hours at 37° C. The colonies were counted macroscopically with the aid of fluorescent light. Non-typical colonies were not counted. […]

Test [2] concerns Escherichia coli. Description: Excised dairy cow teat dip test (Example 2). The note with it: Escherichia coli on excised cow teats; dipped, drained ten minutes; log mean CFU/ml vs negative control. As for the experimental part:
as §1, §2, §3

Another test relates to Pseudomonas aeruginosa. Description: In vitro suspension kill test, 1 minute contact at 37° C., survivors plated (Example 1). The settings on record: diluted with organic load (1:1 with whole milk). How it is done: (§4) A set of in vitro tests was run on Staphylococcus aureus, Escherichia coli, Streptococcus agalactiae, Streptococcus uberis, Staphylococcus epidermidis, and Pseudomonas aeruginosa. A culture of the microorganism was first prepared according to the following procedure. Six to ten milliliters of trypticase soy broth was inoculated with the organism under consideration from a frozen or refrigerated stock. After incubation for five to seven hours at 37° C., the culture was transferred to a flask containing trypticase soy broth. The culture in the flask was then incubated on a gyratory shaker at approximately 1500 rpm overnight at 37° C. The next day, the culture in the flask is washed once in phosphate buffered saline solution (PBS) and stored at approximately 4° C. until needed.
(§5) To test a specific antimicrobial's efficacy, ten milliliters of the culture was transferred to a 15 milliliter centrifuge tube and centrifuged at approximately 600 to 700 g for approximately five to ten minutes. After decanting the supernatant, ten milliliters of the antimicrobial (or PBS in the negative, or untreated, control) was added, and the centrifuge tube vortexed to suspend the bacteria. In those tests involving “organic loads”, a 1:1 dilution of the antimicrobial with whole milk was made before addition to the cultured microorganism to simulate conditions the product may have to experience in a real life environment, such as on a cow's teat.
(§6) The tube was then placed in a 37° C. water bath for 1 minute. The tube was centrifuged again at approximately 600 to 700 g for approximately five to ten minutes, and the supernatant decanted. The remaining precipitate was then suspended in a quencher solution containing letheen broth, 1% sodium thiosulfate and 0.2 mM CaCl2. The tube was centrifuged at approximately 600 to 700 g for approximately five to ten minutes, decanted and washed a second time in the quencher solution.
(§7) The surviving bacteria suspended in quencher solution were then diluted with PBS and plated on appropriate media, for example, MacConkey for Escherichia coli, Staph 110 for Staphylococcus, and trypticase soy agar with 6% Sheep's blood for Streptococcus. The plates were incubated 24 to 48 hours at 37° C. and counted. The surviving organisms were expressed as colony forming units (CFU)/ml, and compared to the negative control as percent survival.

The next test relates to Streptococcus agalactiae. The description is as above. The note with it: diluted with organic load (1:1 with whole milk). As for the experimental part:
as §4, §5, §6, §7

The test system of a further test is Streptococcus uberis. The test is described as above. The note with it: diluted with organic load (1:1 with whole milk). How it is done: as §4, §5, §6, §7
Test [3] concerns Staphylococcus epidermidis. The test is described as above. The settings on record: diluted with organic load (1:1 with whole milk). As for the experimental part: as §4, §5, §6, §7
Test [4] deals with Escherichia coli. The experiment in a line: In vitro suspension kill test, 1 minute contact at 37° C., survivors plated (Examples 1, 5). The settings on record: 1 minute at 37° C. How it is done:
as §4, with “needed. […]” for “needed.”
(§8) The surviving bacteria suspended in quencher solution were then diluted with PBS and plated on appropriate media, for example, MacConkey for Escherichia coli, Staph 110 for Staphylococcus, and trypticase soy agar with 6% Sheep's blood for Streptococcus. The plates were incubated 24 to 48 hours at 37° C. and counted. The surviving organisms were expressed as colony forming units (CFU)/ml, and compared to the negative control as percent survival. […]

Test [5] concerns Staphylococcus aureus. The experiment in a line: In vitro suspension kill test, 1 minute contact at 37° C., survivors plated (Examples 1, 4, 5). The note with it: 1 minute at 37° C. As for the experimental part:
as §4, with “needed. […]” for “needed.”
as §8

Where [6] appears, read: diluted with organic load (1:1 with whole milk).

With `[O][Cl+][O-]` [chlorine dioxide], the “Percent Log Reduction” value in the test with Staphylococcus aureus [1] is 33.90%; in the test on Escherichia coli [2], 22%. The “Percent Survival” value with Pseudomonas aeruginosa is reported as 0%; with Streptococcus agalactiae, 0%; in the test with Streptococcus uberis it was 5.19%; in test [3], 5%; with Escherichia coli [4] (setting [6]), 0%; with Escherichia coli [4] (undiluted antimicrobial) it was 0%. For the same molecule, the “Percent Survival” value in the test with Staphylococcus aureus [5] (setting [6]) is listed as 16.96%; with Staphylococcus aureus [5] (undiluted antimicrobial, CFU/ml compared to negative control) it was 0%.
